Blank lines part the entries; values can stand above or below the compound they belong to.
Columns and labels:
[1] = Oral bioavailability in C57BL/6J mouse at 30 mg/kg by LC-MS/MS analysis; format: ADME, organism-based; settings: in vivo
[2] = target: Cyclin-dependent kinase 2 (Homo sapiens) (UniProt P24941); experiment: Inhibition of CDK2 (unknown origin) at 0.078 uM relative to control
[3] = target: Receptor-type tyrosine-protein kinase FLT3 (Homo sapiens) (UniProt P36888); experiment: Inhibition of FLT3 (unknown origin) at 0.078 uM relative to control
[4] = target: Tyrosine-protein kinase Fyn (Homo sapiens) (UniProt P06241); experiment: Inhibition of FYN (unknown origin) at 0.078 uM relative to control
[5] = target: Mitogen-activated protein kinase kinase kinase 7 (Homo sapiens) (UniProt O43318); experiment: Inhibition of c-TAK1 (unknown origin) at 0.078 uM relative to control
[6] = target: Casein kinase I isoform delta (Homo sapiens) (UniProt P48730); experiment: Inhibition of CK1-delta (unknown origin) at 0.078 uM relative to control
[7] = target: Tyrosine-protein kinase TXK (Homo sapiens) (UniProt P42681); experiment: Inhibition of TXK (unknown origin) at 0.49 uM relative to control
[8] = target: Mitogen-activated protein kinase 13 (Homo sapiens) (UniProt O15264); experiment: Inhibition of p38-delta (unknown origin) at 0.49 uM relative to control
[9] = target: Calcium/calmodulin-dependent protein kinase type II subunit alpha (Homo sapiens) (UniProt Q9UQM7); experiment: Inhibition of CaMK2a (unknown origin) at 0.49 uM relative to control
[10] = target: Serine/threonine-protein kinase 24 (Homo sapiens) (UniProt Q9Y6E0); experiment: Inhibition of MST3 (unknown origin) at 0.49 uM relative to control
[11] = target: Aurora kinase B (Homo sapiens) (UniProt Q96GD4); experiment: Inhibition of AurB (unknown origin) at 0.49 uM relative to control
[12] = target: Serine/threonine-protein kinase Nek2 (Homo sapiens) (UniProt P51955); experiment: Inhibition of NEK2 (unknown origin) at 0.49 uM relative to control
[13] = target: Serine/threonine-protein kinase PAK 3 (Homo sapiens) (UniProt O75914); experiment: Inhibition of PAK3 (unknown origin) at 0.49 uM relative to control
[14] = target: Interleukin-1 receptor-associated kinase 1 (Homo sapiens) (UniProt P51617); experiment: Inhibition of IRAK1 (unknown origin) at 0.49 uM relative to control
[15] = target: Protein-tyrosine kinase 2-beta (Homo sapiens) (UniProt Q14289); experiment: Inhibition of PYK2 (unknown origin) at 0.49 uM relative to control
[16] = target: Testis-specific serine/threonine-protein kinase 1 (Homo sapiens) (UniProt Q9BXA7); experiment: Inhibition of TSSK1 (unknown origin) at 0.49 uM relative to control
[17] = target: Receptor tyrosine-protein kinase erbB-4 (Homo sapiens) (UniProt Q15303); experiment: Inhibition of HER4 (unknown origin) at 0.45 uM relative to control
[18] = target: Ephrin type-B receptor 3 (Homo sapiens) (UniProt P54753); experiment: Inhibition of EPHB3 (unknown origin) at 0.45 uM relative to control
[19] = target: T1, Interleukin-1 receptor-associated kinase 4 (Homo sapiens) (UniProt Q9NWZ3); experiment: Inhibition of IRAK4 (unknown origin) at 0.45 uM relative to control
T1 sequence (whole entry): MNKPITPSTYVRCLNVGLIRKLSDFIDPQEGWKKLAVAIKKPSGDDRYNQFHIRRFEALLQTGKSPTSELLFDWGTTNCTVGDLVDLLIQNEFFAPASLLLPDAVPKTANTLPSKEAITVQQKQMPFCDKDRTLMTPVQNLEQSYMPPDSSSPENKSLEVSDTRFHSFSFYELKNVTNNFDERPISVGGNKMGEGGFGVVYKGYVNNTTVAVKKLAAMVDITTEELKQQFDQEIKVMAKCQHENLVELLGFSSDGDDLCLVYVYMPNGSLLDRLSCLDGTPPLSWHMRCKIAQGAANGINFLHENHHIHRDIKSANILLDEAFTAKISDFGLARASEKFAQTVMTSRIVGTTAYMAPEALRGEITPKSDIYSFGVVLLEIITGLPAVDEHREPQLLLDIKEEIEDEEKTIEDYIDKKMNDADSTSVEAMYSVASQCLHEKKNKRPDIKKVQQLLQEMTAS

[20] = species on record: Homo sapiens; experiment: Inhibition of p70S6K (unknown origin) at 0.45 uM relative to control
[21] = target: Calcium/calmodulin-dependent protein kinase type 1 (Homo sapiens) (UniProt Q14012); experiment: Inhibition of CaMK1a (unknown origin) at 0.45 uM relative to control
[22] = target: cAMP-dependent protein kinase catalytic subunit PRKX (Homo sapiens) (UniProt P51817); experiment: Inhibition of PRKX (unknown origin) at 0.45 uM relative to control
[23] = target: Inhibitor of nuclear factor kappa-B kinase subunit beta (Homo sapiens) (UniProt O14920); experiment: Inhibition of IKK-beta (unknown origin) at 0.45 uM relative to control
[24] = target: Mitogen-activated protein kinase 11 (Homo sapiens) (UniProt Q15759); experiment: Inhibition of p38-beta2 (unknown origin) at 0.45 uM relative to control
[25] = target: Tyrosine-protein kinase SYK (Homo sapiens) (UniProt P43405); experiment: Inhibition of SYK (unknown origin) at 0.45 uM relative to control
[26] = target: Rho-associated protein kinase 1 (Homo sapiens) (UniProt Q13464); experiment: Inhibition of ROCK1 (unknown origin) at 0.45 uM relative to control
[27] = test system: Tyrosine-protein kinase ABL1 (Homo sapiens), P00519 [E255K]; experiment: Inhibition of ABL1 E255K mutant (unknown origin) at 0.45 uM relative to control
[28] = target: Mast/stem cell growth factor receptor Kit (Homo sapiens) (UniProt P10721); experiment: Inhibition of KIT (unknown origin) at 0.45 uM relative to control
Mast/stem cell growth factor receptor Kit (Homo sapiens), sequence (P10721 whole entry): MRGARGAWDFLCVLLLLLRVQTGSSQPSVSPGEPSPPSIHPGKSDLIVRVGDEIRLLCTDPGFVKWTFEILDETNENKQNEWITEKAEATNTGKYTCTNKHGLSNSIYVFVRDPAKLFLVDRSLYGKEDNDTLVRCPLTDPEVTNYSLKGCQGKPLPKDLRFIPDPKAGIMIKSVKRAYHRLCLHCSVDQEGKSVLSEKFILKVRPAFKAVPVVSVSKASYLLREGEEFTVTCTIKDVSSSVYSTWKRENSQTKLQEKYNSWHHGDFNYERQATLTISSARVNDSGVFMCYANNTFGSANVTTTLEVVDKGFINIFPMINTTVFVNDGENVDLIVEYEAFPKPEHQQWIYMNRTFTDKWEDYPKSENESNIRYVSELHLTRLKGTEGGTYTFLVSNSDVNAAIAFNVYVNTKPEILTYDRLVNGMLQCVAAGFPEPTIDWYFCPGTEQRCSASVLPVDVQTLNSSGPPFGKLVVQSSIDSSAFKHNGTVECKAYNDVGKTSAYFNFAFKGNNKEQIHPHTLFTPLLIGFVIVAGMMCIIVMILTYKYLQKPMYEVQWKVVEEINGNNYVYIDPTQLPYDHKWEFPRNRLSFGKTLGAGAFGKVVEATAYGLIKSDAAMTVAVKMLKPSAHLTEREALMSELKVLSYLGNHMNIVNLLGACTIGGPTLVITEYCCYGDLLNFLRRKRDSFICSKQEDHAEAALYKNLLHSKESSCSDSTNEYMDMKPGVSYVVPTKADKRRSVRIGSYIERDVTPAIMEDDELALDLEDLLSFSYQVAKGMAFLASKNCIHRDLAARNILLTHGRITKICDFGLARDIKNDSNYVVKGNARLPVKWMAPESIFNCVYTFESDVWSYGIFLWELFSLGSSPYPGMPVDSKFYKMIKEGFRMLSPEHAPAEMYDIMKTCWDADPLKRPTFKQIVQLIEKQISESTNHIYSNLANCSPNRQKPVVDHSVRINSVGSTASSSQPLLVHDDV

Tyrosine-protein kinase ABL1 (Homo sapiens), P00519 [E255K], sequence (P00519 whole entry E255K): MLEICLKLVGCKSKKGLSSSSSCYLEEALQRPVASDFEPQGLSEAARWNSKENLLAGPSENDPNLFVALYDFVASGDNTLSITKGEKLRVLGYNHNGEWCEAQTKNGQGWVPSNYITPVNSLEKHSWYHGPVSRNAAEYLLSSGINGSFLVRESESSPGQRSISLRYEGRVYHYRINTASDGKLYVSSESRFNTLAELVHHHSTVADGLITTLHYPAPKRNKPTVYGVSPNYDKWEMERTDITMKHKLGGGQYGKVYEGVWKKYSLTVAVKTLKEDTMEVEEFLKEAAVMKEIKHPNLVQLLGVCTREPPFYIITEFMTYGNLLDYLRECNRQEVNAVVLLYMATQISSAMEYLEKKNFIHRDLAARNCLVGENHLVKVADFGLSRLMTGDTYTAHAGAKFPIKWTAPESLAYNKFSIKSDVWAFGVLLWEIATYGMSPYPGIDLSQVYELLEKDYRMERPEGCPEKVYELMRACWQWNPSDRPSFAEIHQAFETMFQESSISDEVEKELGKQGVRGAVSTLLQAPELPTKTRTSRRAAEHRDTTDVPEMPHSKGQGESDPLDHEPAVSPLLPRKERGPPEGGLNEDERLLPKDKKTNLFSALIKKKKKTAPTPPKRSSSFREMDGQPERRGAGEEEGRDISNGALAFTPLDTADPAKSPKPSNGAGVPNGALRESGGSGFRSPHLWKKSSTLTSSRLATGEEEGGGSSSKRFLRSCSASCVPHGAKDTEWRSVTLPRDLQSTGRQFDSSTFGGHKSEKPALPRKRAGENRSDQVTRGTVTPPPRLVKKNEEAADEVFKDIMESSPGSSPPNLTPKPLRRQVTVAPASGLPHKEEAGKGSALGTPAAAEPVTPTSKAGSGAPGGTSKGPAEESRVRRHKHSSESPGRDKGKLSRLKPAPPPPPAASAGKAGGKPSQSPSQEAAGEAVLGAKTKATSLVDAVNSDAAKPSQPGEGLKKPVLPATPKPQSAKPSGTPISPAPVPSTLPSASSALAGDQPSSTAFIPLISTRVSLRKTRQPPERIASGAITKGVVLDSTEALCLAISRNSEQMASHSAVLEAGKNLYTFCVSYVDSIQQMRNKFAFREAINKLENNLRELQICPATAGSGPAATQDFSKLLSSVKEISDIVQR
Calcium/calmodulin-dependent protein kinase type 1 (Homo sapiens), sequence (Q14012 whole entry, looked up): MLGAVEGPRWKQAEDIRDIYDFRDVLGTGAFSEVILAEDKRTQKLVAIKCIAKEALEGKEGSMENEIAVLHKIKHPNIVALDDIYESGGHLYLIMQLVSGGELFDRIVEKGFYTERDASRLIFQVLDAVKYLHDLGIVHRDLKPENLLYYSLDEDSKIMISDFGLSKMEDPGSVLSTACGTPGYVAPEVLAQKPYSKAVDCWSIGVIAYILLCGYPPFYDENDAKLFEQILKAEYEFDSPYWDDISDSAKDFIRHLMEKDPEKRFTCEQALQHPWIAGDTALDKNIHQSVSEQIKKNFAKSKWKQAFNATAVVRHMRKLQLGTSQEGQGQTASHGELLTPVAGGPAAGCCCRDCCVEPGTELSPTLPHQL
Rho-associated protein kinase 1 (Homo sapiens), sequence (Q13464 2-1354 limits assumed): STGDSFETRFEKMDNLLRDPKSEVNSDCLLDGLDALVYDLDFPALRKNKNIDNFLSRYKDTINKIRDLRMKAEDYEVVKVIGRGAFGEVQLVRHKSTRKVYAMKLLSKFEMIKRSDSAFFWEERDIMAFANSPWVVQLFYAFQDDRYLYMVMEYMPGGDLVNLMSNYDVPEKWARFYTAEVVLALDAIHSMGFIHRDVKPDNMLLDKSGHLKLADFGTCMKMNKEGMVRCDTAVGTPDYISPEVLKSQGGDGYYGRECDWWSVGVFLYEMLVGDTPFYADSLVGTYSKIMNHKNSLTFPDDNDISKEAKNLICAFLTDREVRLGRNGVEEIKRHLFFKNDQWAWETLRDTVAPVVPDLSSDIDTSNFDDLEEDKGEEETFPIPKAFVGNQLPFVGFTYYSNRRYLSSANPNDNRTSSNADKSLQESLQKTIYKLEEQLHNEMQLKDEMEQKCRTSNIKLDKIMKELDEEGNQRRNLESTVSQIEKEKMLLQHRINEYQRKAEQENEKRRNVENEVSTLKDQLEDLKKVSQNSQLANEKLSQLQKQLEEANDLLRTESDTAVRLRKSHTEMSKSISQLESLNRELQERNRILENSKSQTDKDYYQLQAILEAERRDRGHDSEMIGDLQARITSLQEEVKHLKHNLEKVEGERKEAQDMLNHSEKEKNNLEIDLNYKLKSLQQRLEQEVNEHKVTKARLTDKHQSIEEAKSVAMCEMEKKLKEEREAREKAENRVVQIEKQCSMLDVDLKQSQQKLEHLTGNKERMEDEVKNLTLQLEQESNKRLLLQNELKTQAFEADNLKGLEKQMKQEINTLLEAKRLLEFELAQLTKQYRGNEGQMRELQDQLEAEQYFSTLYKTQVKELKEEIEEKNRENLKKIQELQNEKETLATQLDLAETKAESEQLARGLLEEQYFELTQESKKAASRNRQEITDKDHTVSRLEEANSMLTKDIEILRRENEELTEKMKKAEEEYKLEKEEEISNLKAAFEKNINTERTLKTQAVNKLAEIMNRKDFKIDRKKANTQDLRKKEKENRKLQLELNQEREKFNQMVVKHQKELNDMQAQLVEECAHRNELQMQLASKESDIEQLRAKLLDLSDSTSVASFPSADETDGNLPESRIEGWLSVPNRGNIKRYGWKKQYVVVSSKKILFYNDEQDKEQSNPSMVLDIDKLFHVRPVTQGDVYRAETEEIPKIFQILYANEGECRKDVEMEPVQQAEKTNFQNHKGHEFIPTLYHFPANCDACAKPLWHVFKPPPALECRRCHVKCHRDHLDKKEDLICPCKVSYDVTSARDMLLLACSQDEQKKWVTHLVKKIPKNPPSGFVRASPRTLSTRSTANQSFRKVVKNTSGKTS
Aurora kinase B (Homo sapiens), sequence (Q96GD4 whole entry): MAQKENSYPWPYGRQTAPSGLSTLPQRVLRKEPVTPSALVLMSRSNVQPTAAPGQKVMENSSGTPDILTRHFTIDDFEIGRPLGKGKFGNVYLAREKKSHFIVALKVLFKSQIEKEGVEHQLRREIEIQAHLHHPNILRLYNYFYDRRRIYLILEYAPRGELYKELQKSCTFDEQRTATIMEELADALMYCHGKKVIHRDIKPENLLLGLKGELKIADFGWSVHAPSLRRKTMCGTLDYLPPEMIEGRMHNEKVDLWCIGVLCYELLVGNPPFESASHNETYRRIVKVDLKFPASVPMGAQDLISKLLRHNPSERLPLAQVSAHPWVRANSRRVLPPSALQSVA
cAMP-dependent protein kinase catalytic subunit PRKX (Homo sapiens), sequence (P51817 whole entry): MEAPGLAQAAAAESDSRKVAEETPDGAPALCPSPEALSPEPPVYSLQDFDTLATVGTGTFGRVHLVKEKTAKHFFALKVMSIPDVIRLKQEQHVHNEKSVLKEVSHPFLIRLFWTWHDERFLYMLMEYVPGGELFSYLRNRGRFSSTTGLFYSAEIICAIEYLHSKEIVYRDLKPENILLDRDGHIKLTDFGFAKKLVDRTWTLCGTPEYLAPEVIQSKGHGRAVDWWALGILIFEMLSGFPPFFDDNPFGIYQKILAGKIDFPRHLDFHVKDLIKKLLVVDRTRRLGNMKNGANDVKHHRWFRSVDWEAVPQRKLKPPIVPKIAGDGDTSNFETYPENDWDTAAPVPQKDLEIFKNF
Mitogen-activated protein kinase 11 (Homo sapiens), sequence (Q15759 whole entry): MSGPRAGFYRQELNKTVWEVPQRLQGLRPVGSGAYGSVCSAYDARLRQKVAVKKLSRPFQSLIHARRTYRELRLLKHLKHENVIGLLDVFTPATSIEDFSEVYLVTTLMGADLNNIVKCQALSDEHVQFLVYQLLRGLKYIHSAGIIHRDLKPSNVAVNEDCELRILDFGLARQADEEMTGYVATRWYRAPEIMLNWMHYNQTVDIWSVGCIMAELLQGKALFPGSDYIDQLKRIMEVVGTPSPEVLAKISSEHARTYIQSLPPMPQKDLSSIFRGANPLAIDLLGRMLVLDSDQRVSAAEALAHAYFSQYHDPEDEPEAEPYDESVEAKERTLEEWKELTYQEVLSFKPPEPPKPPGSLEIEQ

bioavailability [1]: 100%
inhibition [2]: -4.3%
inhibition [3]: -0.3%
inhibition [4]: -4.3%
inhibition [5]: -3.3%
inhibition [6]: 10.7%
SMILES: COC(=O)Nc1noc2cc(-c3c(-c4ccccn4)n[nH]c3C)ccc12

inhibition [7]: -0.3%
inhibition [8]: 4.3%
inhibition [9]: 1.3%
inhibition [10]: 2.3%
inhibition [11]: -6.3%
inhibition [12]: 10.7%
inhibition [13]: -4.3%
inhibition [14]: 6.7%
inhibition [15]: 1.3%
inhibition [16]: 1%
SMILES: Cc1[nH]nc(C2CC2)c1-c1ccc2c(NC(=O)C3CC3)noc2c1

inhibition [17]: -7%
inhibition [18]: 2.7%
inhibition [19]: 11%
inhibition [20]: 1.3%
inhibition [21]: -0.7%
inhibition [22]: 0.3%
inhibition [23]: 2.3%
inhibition [24]: -1.3%
inhibition [25]: 2.7%
inhibition [26]: -2%
inhibition [27]: 72.7%
inhibition [28]: 24.7%
SMILES: Cc1n[nH]c(C)c1-c1ccc2c(NC(=O)c3ccc(N4CCN(C)CC4)cc3)n[nH]c2c1
